Read-outs that look alike come from different tables or passages of the source.
Legend:
[1] = molecular target: T1, human recombinant serotonin (5-Hydroxytryptamine) 5-HT2A receptor (Homo sapiens, UniProt P28223); assay: Serotonin 5-HT2A radioligand binding ([3H]Ketanserin); conditions: for inhibition at 0.01 µM: compound concentration 10 nM; for inhibition at 0.03 µM: compound concentration 0.03 μM; for inhibition at 0.1 µM: compound concentration 0.1 μM; for inhibition at 0.3 µM: compound concentration 0.3 μM
T1 construct: expressed in transfected cells; host or cells: CHO-K1 cells
T1 sequence (P28223 whole entry): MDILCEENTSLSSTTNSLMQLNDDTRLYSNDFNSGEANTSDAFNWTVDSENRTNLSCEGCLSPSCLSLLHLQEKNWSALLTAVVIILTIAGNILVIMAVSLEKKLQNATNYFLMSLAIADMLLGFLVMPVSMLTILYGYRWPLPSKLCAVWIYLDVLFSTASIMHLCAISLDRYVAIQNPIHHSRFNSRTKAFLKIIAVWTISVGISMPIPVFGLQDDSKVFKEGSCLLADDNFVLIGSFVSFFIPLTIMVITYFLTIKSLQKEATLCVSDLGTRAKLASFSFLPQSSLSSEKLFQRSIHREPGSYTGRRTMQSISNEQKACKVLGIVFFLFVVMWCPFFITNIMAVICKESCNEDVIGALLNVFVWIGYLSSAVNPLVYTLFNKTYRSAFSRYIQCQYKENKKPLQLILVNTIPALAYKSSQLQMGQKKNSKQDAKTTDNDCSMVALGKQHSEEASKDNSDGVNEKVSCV
How it was run: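 Membranes from CHO-K1 cells expressing the receptor, in 50 mM Tris-HCl pH 7.4, incubated 60 min at 25° C with 0.5 nM [3H]Ketanserin; 1 μM Mianserin defines non-specific binding. Filtration and counting; values are % inhibition of specific binding at 1 μM or lower, 1% DMSO.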

[2] = molecular target: T2, human recombinant serotonin (5-Hydroxytryptamine) 5-HT6 receptor (Homo sapiens, UniProt P50406); assay: Serotonin 5-HT6 radioligand binding ([3H]LSD); conditions: for inhibition at 0.01 µM: compound concentration 10 nM; for inhibition at 0.03 µM: compound concentration 0.03 μM; for inhibition at 0.1 µM: compound concentration 0.1 μM; for inhibition at 0.3 µM: compound concentration 0.3 μM
T2 construct: expressed in transfected cells; host or cells: human HeLa cells
T2 sequence (P50406 whole entry): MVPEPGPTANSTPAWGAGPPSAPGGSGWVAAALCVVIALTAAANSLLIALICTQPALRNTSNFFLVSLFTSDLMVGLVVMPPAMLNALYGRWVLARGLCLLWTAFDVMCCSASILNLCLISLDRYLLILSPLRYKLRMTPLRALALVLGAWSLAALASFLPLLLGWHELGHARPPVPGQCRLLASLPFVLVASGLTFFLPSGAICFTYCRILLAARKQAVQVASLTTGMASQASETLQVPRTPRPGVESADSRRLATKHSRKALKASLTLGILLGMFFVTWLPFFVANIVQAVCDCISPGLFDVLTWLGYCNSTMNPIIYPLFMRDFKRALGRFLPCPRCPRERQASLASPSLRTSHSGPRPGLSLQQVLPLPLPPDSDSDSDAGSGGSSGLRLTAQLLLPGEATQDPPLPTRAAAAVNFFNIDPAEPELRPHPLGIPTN
How it was run: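 Human 5-HT6 receptor expressed in HeLa cells, in Tris-HCl pH 7.4 with 150 mM NaCl, ascorbic acid and BSA. Compounds at 1 μM or lower (1% DMSO) incubated 120 min at 37° C with 1.5 nM [3H]LSD. Non-specific binding defined with serotonin; filter counting gives % inhibition of specific binding.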

[3] = molecular target: T3, human recombinant histamine H2 receptor (Homo sapiens, UniProt P25021); assay: Histamine H2 radioligand binding ([125I]Aminopotentidine)
T3 construct: expressed in transfected cells; host or cells: CHO-K1 cells
T3 sequence (P25021 whole entry): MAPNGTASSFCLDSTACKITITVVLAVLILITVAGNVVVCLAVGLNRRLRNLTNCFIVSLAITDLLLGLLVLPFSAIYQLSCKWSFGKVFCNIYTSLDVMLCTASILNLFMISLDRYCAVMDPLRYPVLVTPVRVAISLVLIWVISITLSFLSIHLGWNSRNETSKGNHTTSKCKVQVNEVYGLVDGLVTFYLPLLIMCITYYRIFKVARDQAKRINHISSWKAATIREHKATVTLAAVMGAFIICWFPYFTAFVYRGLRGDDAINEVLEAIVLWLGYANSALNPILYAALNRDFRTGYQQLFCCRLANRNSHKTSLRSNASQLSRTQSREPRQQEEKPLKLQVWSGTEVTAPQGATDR
How it was run: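 Membranes of CHO-K1 cells expressing human H2 receptor incubated with 0.1 nM [125I]aminopotentidine, 120 min, 25 °C, 50 mM phosphate pH 7.4; nonspecific binding defined with 3 μM tiotidine.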

[4] = molecular target: T4, human recombinant adrenergic α2A receptor (Homo sapiens, UniProt P08913); assay: Adrenergic α2A radioligand binding ([3H]MK-912)
T4 construct: expressed in transfected cells; host or cells: insect Sf9 cells
T4 sequence (P08913 1-465): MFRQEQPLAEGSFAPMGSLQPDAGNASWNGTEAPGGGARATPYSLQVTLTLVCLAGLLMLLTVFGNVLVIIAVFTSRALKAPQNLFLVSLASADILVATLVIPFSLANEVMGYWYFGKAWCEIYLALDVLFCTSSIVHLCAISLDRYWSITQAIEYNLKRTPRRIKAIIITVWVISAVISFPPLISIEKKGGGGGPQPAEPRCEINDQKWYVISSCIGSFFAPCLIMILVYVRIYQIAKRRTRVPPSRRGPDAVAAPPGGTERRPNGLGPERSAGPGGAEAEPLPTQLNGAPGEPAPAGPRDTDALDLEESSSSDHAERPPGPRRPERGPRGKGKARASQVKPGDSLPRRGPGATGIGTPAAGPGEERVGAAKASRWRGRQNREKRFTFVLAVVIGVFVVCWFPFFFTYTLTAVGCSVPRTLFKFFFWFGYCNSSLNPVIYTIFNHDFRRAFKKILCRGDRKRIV
Procedure: To evaluate in radioligand binding assays the activity of compounds of the invention, human recombinant adrenergic α2A receptor expressed in insect Sf9 cells (Uhlen S et al. J Pharmacol Exp Ther. 271:1558, 1994) in a modified Tris-HCl buffer (50 mM Tris-HCl, pH 7.4, 12.5 mM MgCl2, 2 mM EDTA) was used. Compounds of invention were incubated with 1 nM [^3H]MK-912 for 60 minutes at 25° C. MK912 is (2S-trans)-1,3,4,5′,6,6′,7,12b-octahydro-1′,3′-dimethyl-spiro[2H-benzofuro[2,3-a]quinolizine-2,4′(1′H)-pyrimidin]-2′(3′H)-one hydrochloride Non-specific binding was estimated in the presence of 10 μM WB-4101 (2-(2,6-Dimethoxyphenoxyethyl)aminomethyl-1,4-benzodioxane hydrochloride). Receptor proteins were filtered and washed, the filters were then counted to determine [^3H]MK-912 specifically bound. Compounds were screened at 1 μM or lower, using 1% DMSO as vehicle. Biochemical assay results are presented as the percent inhibition of specific binding in Table 4.

[5] = 1 h, read-out: Percent Inhibition of ligand binding Serotonin (1 μM ligand concentration) 5-HT2A
[6] = 2 h, read-out: Percent Inhibition of ligand binding Serotonin (1 μM ligand concentration) 5-HT6
[7] = 1 μM, inhibition of specific [125I]Aminopotentidine binding, read-out: Binding data (Percentage Inhibition) Histamine Binding (1 μM) H2
[8] = 1 h, read-out: Percent Inhibition of ligand binding Adrenergic (1 μM ligand conc.) α2A
[9] = read-out: Percentage inhibition of ligand binding to 5-HT2A receptor
[10] = compound concentration 1 μM, read-out: Percentage inhibition of ligand binding to 5-HT2A receptor
[11] = read-out: Percentage inhibition of ligand binding to 5-HT6 receptor
[12] = compound concentration 1 μM, read-out: Percentage inhibition of ligand binding to 5-HT6 receptor
[13] = compound concentration 1 μM, read-out: Percentage inhibition of ligand binding to H2 receptor
[14] = compound concentration 1 μM, read-out: Percentage inhibition of ligand binding to Adrenergic α2A receptor

CN1CCc2c(n(CC(=O)NC3CCCCC3)c3ccc(Cl)cc23)C1 [Compound 17, 2-(6-chloro-1,2,3,4-tetrahydro-2-methylpyvrido[3,4-b]indol-9-yl)-N-cyclohexylacetamide]
inhibition at 1 µM [1, 5]: 17% | inhibition at 1 µM [2, 6]: 3% | inhibition at 1 µM [3, 7]: -6% | inhibition at 1 µM [4, 8]: 17%

CN1CCc2c(n(CC(=O)N3CCCCC3)c3ccc(Cl)cc23)C1 [Compound 58, 2-(6-chloro-2-methyl-3,4-dihydro-1H-pyrido[3,4-b]indol-9(2H)-yl)-1-(piperidin-1-yl)ethanone]
inhibition at 1 µM [1, 5]: -10% | inhibition at 1 µM [2, 6]: -7% | inhibition at 1 µM [3, 7]: 11% | inhibition at 1 µM [4, 8]: -12%

CN1CCc2c(n(CCN3CCCCC3)c3ccc(Cl)cc23)C1 [Compound 34, 6-chloro-2,3,4,9-tetrahydro-2-methyl-9-(2-(piperidin-1-yl)ethyl)-1H-pyrido[3,4-b]indole]
inhibition at 1 µM [1, 5]: 31% | inhibition at 1 µM [2, 6]: 16% | inhibition at 1 µM [3, 7]: 20% | inhibition at 1 µM [4, 8]: 66%

COc1ccc(C(O)Cn2c3c(c4cc(Cl)ccc42)CCN(C)C3)cc1OC (stereo not drawn) [Compound 70]
inhibition at 1 µM [1, 5]: 56% | inhibition at 1 µM [2, 6]: 21% | inhibition at 1 µM [3, 7]: 1% | inhibition at 1 µM [4, 8]: 81%

CCC1c2c(c3cc(Cl)ccc3n2CCc2ccc(F)cc2)CCN1C (stereo not drawn) [Compound 78]
inhibition at 1 µM [1, 5]: 80% | inhibition at 1 µM [2, 6]: 48% | inhibition at 1 µM [3, 7]: 33% | inhibition at 1 µM [4, 8]: 93%

C/C(=C\n1c2c(c3cc(Cl)ccc31)CCN(C)C2C)c1ccc(Cl)cc1 (stereo not drawn) [Compound 99, 6-chloro-9-(2-(4-chlorophenyl)prop-1-enyl)-1,2-dimethyl-2,3,4,9-tetrahydro-1H-pyrido[3,4-b]indole]
inhibition at 1 µM [1, 5]: 86% | inhibition at 1 µM [2, 6]: 69% | inhibition at 1 µM [3, 7]: 62% | inhibition at 1 µM [4, 8]: 59%

C/C(=C\n1c2c(c3cc(C)ccc31)CCN(C)C2)c1ccc(F)cc1 [Compound 91, (E)-9-(2-(4-fluorophenyl)prop-1-enyl)-2,6-dimethyl-2,3,4,9-tetrahydro-1H-pyrido[3,4-b]indole]
inhibition at 1 µM [1, 5]: 97% | inhibition at 0.003 µM ([1]; compound concentration 3 nM, read-out: Percentage inhibition of ligand binding to 5-HT2A receptor): 2% | inhibition at 0.01 µM [1, 9]: 21% | inhibition at 0.03 µM [1, 9]: 54% | inhibition at 0.1 µM [1, 9]: 79% | inhibition at 0.3 µM [1, 9]: 92% | inhibition at 1 µM [1, 10]: 97% | inhibition at 1 µM [2, 6]: 100% | inhibition at 0.003 µM ([2]; compound concentration 3 nM, read-out: Percentage inhibition of ligand binding to 5-HT6 receptor): 15% | inhibition at 0.01 µM [2, 11]: 42% | inhibition at 0.03 µM [2, 11]: 68% | inhibition at 0.1 µM [2, 11]: 84% | inhibition at 0.3 µM [2, 11]: 96% | inhibition at 1 µM [2, 12]: 100% | inhibition at 1 µM [3, 7]: 68% | inhibition at 1 µM [3, 13]: 68% | inhibition at 1 µM [4, 8]: 95% | inhibition at 1 µM [4, 14]: 95%

C/C(=C\n1c2c(c3cc(C)ccc31)CCN(C)C2C)c1ccccc1F (stereo not drawn) [Compound 166]
inhibition at 1 µM [1, 5]: 102% | inhibition at 0.01 µM [1, 9]: 15% | inhibition at 0.03 µM [1, 9]: 46% | inhibition at 0.1 µM [1, 9]: 74% | inhibition at 0.3 µM [1, 9]: 81% | inhibition at 1 µM [1, 10]: 102% | inhibition at 1 µM [2, 6]: 95% | inhibition at 0.01 µM [2, 11]: 13% | inhibition at 0.03 µM [2, 11]: 16% | inhibition at 0.1 µM [2, 11]: 38% | inhibition at 0.3 µM [2, 11]: 55% | inhibition at 1 µM [2, 12]: 95% | inhibition at 1 µM [3, 7]: 90% | inhibition at 1 µM [3, 13]: 90% | inhibition at 1 µM [4, 8]: 95% | inhibition at 1 µM [4, 14]: 95%

CN1CCc2c(n(CC(C)(O)c3ccc(F)cc3)c3ccc(Cl)cc23)C1 (stereo not drawn) [Compound 62, 1-(6-chloro-2-methyl-3,4-dihydro-1H-pyrido[3,4-b]indol-9(2H)-yl)-2-(4-fluorophenyl)propan-2-ol]
inhibition at 1 µM [1, 5]: 88% | inhibition at 1 µM [2, 6]: 77% | inhibition at 1 µM [3, 7]: 48% | inhibition at 1 µM [4, 8]: 90%

CCC1c2c(c3cc(C)ccc3n2/C=C(\C)c2ccc(Cl)cc2)CCN1C (stereo not drawn) [Compound 160, 9-(2-(4-chlorophenyl)prop-1-enyl)-1-ethyl-2,6-dimethyl-2,3,4,9-tetrahydro-1H-pyrido[3,4-b]indole]
inhibition at 1 µM [1, 5]: 95% | inhibition at 1 µM [2, 6]: 24% | inhibition at 1 µM [3, 7]: 67% | inhibition at 1 µM [4, 8]: 51%

COC(=O)Cn1c2c(c3cc(Cl)ccc31)CCN(C)C2 [Compound 54, methyl 2-(6-chloro-2-methyl-3,4-dihydro-1H-pyrido[3,4-b]indol-9(2H)-yl)acetate]
inhibition at 1 µM [1, 5]: 0% | inhibition at 1 µM [2, 6]: 8% | inhibition at 1 µM [3, 7]: 21% | inhibition at 1 µM [4, 8]: 4%

CN1CCc2c(n(CCCC(=O)N3CCCCC3)c3ccc(Cl)cc23)C1 [Compound 44, 4-(6-chloro-1,2,3,4-tetrahydro-2-methylpyrido[3,4-b]indol-9-yl)-1-(piperidin-1-yl)butan-1-one]
inhibition at 1 µM [1, 5]: 73% | inhibition at 1 µM [2, 6]: 12% | inhibition at 1 µM [3, 7]: 9% | inhibition at 1 µM [4, 8]: 77%

Cc1ccc2c(c1)c1c(n2CC(=O)O)CN(C)CC1 [Compound 53, 2-(1,2,3,4-tetrahydro-2,6-dimethylpyrido[3,4-b]indol-9-yl)acetic acid]
inhibition at 1 µM [1, 5]: -6% | inhibition at 1 µM [2, 6]: -8% | inhibition at 1 µM [3, 7]: 0% | inhibition at 1 µM [4, 8]: 5%

Cc1ccc(CCn2c3c(c4cc(Cl)ccc42)CCN(C)C3C)cn1 (stereo not drawn) [Compound 80]
inhibition at 1 µM [1, 5]: 56% | inhibition at 1 µM [2, 6]: 23% | inhibition at 1 µM [3, 7]: 18% | inhibition at 1 µM [4, 8]: 82%

CC1c2c(c3cc(Cl)ccc3n2CCc2ccc(F)cc2)CCN1C (stereo not drawn) [Compound 81]
inhibition at 1 µM [1, 5]: 93% | inhibition at 1 µM [2, 6]: 96% | inhibition at 1 µM [3, 7]: 67% | inhibition at 1 µM [4, 8]: 92%

Cc1ccc2c(c1)c1c(n2CC(C)(O)c2ccc(F)cc2)CN(C)CC1 (stereo not drawn) [Compound 61, 1-(2,6-dimethyl-3,4-dihydro-1H-pyrido[3,4-b]indol-9(2H)-yl)-2-(4-fluorophenyl)propan-2-ol]
inhibition at 1 µM [1, 5]: 86% | inhibition at 1 µM [2, 6]: 61% | inhibition at 1 µM [3, 7]: 17% | inhibition at 1 µM [4, 8]: 83%

Cc1ccc(CCCn2c3c(c4cc(Cl)ccc42)CCN(C)C3)cn1 [Compound 56, 6-chloro-2-methyl-9-(3-(6-methylpyridin-3-yl)propyl)-2,3,4,9-tetrahydro-1H-pyrido[3,4-b]indole]
inhibition at 1 µM [1, 5]: 12% | inhibition at 1 µM [2, 6]: -3% | inhibition at 1 µM [3, 7]: 20% | inhibition at 1 µM [4, 8]: 7%

CCC1c2c(c3cc(C)ccc3n2C#Cc2ccc(Cl)cc2)CCN1C (stereo not drawn) [Compound 162, 9-((4-chlorophenyl)ethynyl)-1-ethyl-2,6-dimethyl-2,3,4,9-tetrahydro-1H-pyrido[3,4-b]indole]
inhibition at 1 µM [1, 5]: 98% | inhibition at 1 µM [2, 6]: 12% | inhibition at 1 µM [3, 7]: 33% | inhibition at 1 µM [4, 8]: 76%

Cc1ccc2c(c1)c1c(n2CC(O)c2ccccc2F)CN(C)CC1 (stereo not drawn) [Compound 60, 2-(2,6-dimethyl-3,4-dihydro-1H-pyrido[3,4-b]indol-9(2H)-yl)-1-(2-fluorophenyl)ethanol]
inhibition at 1 µM [1, 5]: 74% | inhibition at 1 µM [2, 6]: 62% | inhibition at 1 µM [3, 7]: 15% | inhibition at 1 µM [4, 8]: 79%

From patent US9260429B2, “Pyrido[3,4-B]indoles and methods of use” (Medivation Technologies, Inc., priority 2008, dated 2016)
